{"source": "patent US10806711B2", "about": "(priority 2011, dated 2020)", "key": {"[1]": {"tested_on": "TRPV2^−/− mice", "assay": "Contractility by echo after IP probenecid in TRPV2−/− mice", "format": "in vivo, mouse", "conditions": "100 mg/kg IP", "protocol": "WT, TRPV2^+/−, and TRPV2^−/− mice were monitored by echo for 30 minutes after injection as described below. Echocardiography—All echocardiographic studies were performed with a Vevo 2100 Ultrasound system (Visualsonics, Toronto Calif.) with an MS400 probe (30 MHz centerline frequency) and were post-processed at a separate workstation with Vevostrain software (Vevo 2100, v1.1.1 B1455, Visualsonic, Toronto, Canada). Images were obtained from PSLAX and short axis (SAX) views at depths between 2 and 10 mm in both M-mode and B-mode. All studies on mice exposed to I/R injury included M-mode, B-mode in PSLAX and strain imaging in SAX. While for the contractility studies, only M-mode measurements were obtained from the PSLAX. Strain imaging was performed from the B-mode images and regional radial strain and circumferential displacement were measured by regional wall and summed average from the SAX images. From the M-mode images, left ventricular cavity size and wall thickness was measured and the ejection fraction (EF) and fractional shortening (FS) calculations were obtained using the Vevo software. […] In addition, the average change from baseline for each time point between 5 and 30 minutes was determined for each mouse, with measurements being taken every 5 minutes. […]"}, "[2]": {"tested_on": "WT mice", "assay": "In vivo electrophysiology (electrocardiographic data during echo studies)", "parameters": "species or system mouse", "protocol": "In vivo electrophysiology—Electrocardiographic data was obtained during all echocardiographic studies. These studies were subsequently analyzed by an independent, blinded reader at all time points to evaluate for electrocardiographic changes and drug induced arrhythmias. The following parameters were measured: PR interval, RR interval, QRS width and were reported as peak change while the presence of supraventricular or ventricular arrhythmias was measured as a total observed over all images obtained in 30 minutes."}, "[3]": {"tested_on": "WT mice", "assay": "Invasive evaluation of +dP/dt (LV pressure catheter)", "format": "in vivo, mouse", "conditions": "30 mg/kg and 100 mg/kg bolus IV, 5 minutes between doses", "protocol": "Invasive evaluation.—Once a dose range was established, a separate group of WT mice were anesthetized with an intraperitoneal injection of ketamine (50 μg/g) and inactin (thiobutabarbital, 100 μg/g, Sigma, Mass.). A tracheotomy was performed (PE-90), and body temperature was monitored and maintained with a feedback-controlled heating table. The right femoral artery was cannulated with fluid-filled polyethylene tubing for measurement of blood pressure and connected to a low compliance pressure transducer (COBE Cardiovascular, Arvada, Colo.). The right femoral vein was cannulated for delivery of drugs. A high fidelity, 1.2-French SciSence pressure catheter (SciSence, London, ON, Canada) was inserted into the right carotid artery and advanced into the left ventricle to monitor cardiac performance. ECG leads were placed on the right and left arms, and left leg and connected to a BIOAmp (AD Instruments, Colorado Springs, Colo.). For carotid blood flow measurements, the left carotid artery was isolated and fitted with a 0.5-PSB perivascular flow probe connected to a TS420 flowmeter (Transonic Systems, Ithaca, N.Y.). […] Hemodynamic variables were collected and analyzed using a MacLab 4/S system (AD Instruments, Colorado Springs, Colo.) and Chart software."}, "[4]": {"tested_on": "Langendorff perfused hearts of WT mice", "assay": "Ex vivo (Langendorff) perfused isolated heart", "parameters": "species or system mouse", "conditions": "10^−6 M perfusion", "protocol": "Ex vivo (Langendorff) studies—Isolated heart experiments were performed as previously described on WT mice. […] Measurements were taken every second."}, "[5]": {"tested_on": "mice with and without I/R injury", "conditions": "mouse, in vivo, po, 6.33 mg/kg/day", "protocol": "The hearts were removed, rinsed with PBS, fixed with 3.7% buffered formaldehyde (after 30 minutes the buffer was changed) and dehydrated (hearts were placed in 70% ethanol after 18-24 hours). The samples were embedded in paraffin, sectioned into thicknesses of 6 μm, each 10 μm apart, and 2 heart sections were placed onto each slide. The slides were prepared using the in situ apoptosis detection kit, CardioTACS (Trevigen, Gaithersburg, Md.) according to the manufacturer's instructions. After staining, the slides were placed on a microscope (Olympus 1×71) and the number of apoptotic cells was counted by two separate and blinded readers in 5 fields of view for each heart section. The total number of cells was also determined for the same field, and the apoptotic cells were calculated to be a percentage of the total cells.\nThe water was changed twice a week and the volume was measured before and after consumption to determine the approximate dose. The mice were housed 2 to a cage for a more accurate assessment of total dose administered."}, "[6]": {"tested_on": "mice subjected to I/R", "assay": "Probenecid bolus followed by Ischemia/Reperfusion (infarct size, echocardiography)", "format": "in vivo, mouse", "conditions": "IV pretreatment", "protocol": "Ischemia/Reperfusion methods—Mice were anesthetized with sodium pentobarbital and the heart exposed through a left thoracotomy at the level of the fourth intercostal space. The mice were intubated and placed on a mini-ventilator (Harvard apparatus, Holliston, Mass.). A loop occluder was placed around the left anterior descending artery (LAD), and tightened, occluding it for either 30 minutes or 45 minutes. After surgery, the thorocotomy was sutured in layers, and the animal was allowed to recover. […] At twenty-four hours post-I/R, echocardiography was performed and the hearts subsequently removed for determination of infarct size and normalized to the risk region."}, "[7]": {"tested_on": "subjects with uncomplicated congestive heart failure", "conditions": "2 g/day or 4 g/day orally over several days; cited from earlier work"}}, "note": "Entries after “also recorded” stand apart in the source; their conditions may differ."}
{"compound": "CCCN(CCC)S(=O)(=O)c1ccc(C(=O)O)cc1", "note": "[probenecid]", "values": [{"measurement": "cardiac response (contractility) during 30 minutes of echocardiogram", "setting": "[1]", "result": "no discernable cardiac response; also recorded: absolutely no change in function"}, {"measurement": "electrocardiographic differences between WT and TRPV2−/− mice (FIG. 2D)", "setting": "[2]; 100 mg/kg IP", "result": "no significant differences"}, {"measurement": "changes in conduction intervals (RR, PR, QRS)", "setting": "[2]; all doses", "result": "no measured changes in any conduction intervals; also recorded: no significant changes in any of the measured electrocardiographic variables"}, {"measurement": "supraventricular or ventricular arrhythmias, premature beats", "setting": "[2]; any dose of probenecid, observed over 30 minutes", "result": "No supraventricular or ventricular arrhythmias or premature atrial or ventricular beats were observed; also recorded: no arrhythmias"}, {"measurement": "peak +dP/dt in vivo", "setting": "[3]", "result": "rapidly increased"}, {"measurement": "change in average +dP/dt over time", "setting": "[4]; paced 400 bpm", "result": "statistically significant from 90 to 210 seconds; also recorded: significantly different from baseline"}, {"measurement": "relaxation (−dP/dt)", "setting": "[4]; increased from 1812±158, P<0.01", "result": "2309±133"}, {"measurement": "apoptosis in healthy mice", "setting": "[5]", "result": "did not induce significant apoptosis"}, {"measurement": "systolic function (EF and global circumferential strain), pretreated vs saline", "setting": "[6]; 30 and 45 minute ischemia", "result": "not significantly different; also recorded: no difference"}, {"measurement": "infarct size, pretreated vs saline control", "setting": "[6]; 30 and 45 minute ischemia, 24 hours of reperfusion", "result": "not significantly different; also recorded: no difference"}, {"measurement": "radial displacement of the anterior wall", "setting": "[6]; 30 minutes ischemia, saline 0.43±0.02", "result": "0.46±0.06", "unit": "mm"}, {"measurement": "radial displacement of the anterior wall", "setting": "[6]; 45 minutes ischemia, saline 0.36±0.03", "result": "0.35±0.06", "unit": "mm"}, {"measurement": "radial displacement, pretreated vs control", "setting": "[6]; either time point", "result": "no difference between the treatment groups"}, {"measurement": "diuretic effect", "setting": "[7]", "result": "strong diuretic effect"}]}
